Assay results reported in patent US9302999B2, “Substituted triazoles as herbicides” (E. I. DU PONT DE NEMOURS AND COMPANY, priority 2012, dated 2016).

Columns and labels:
Assay type in all cases: in vivo
Details in all cases: Preemergence, scale 0 to 100
[1] = test system: pigweed, palmer (palmer pigweed, Amaranthus palmeri); assay: Test E pre-/postemergence: pigweed, palmer
Excerpt: (§1) Seeds of plant species selected from corn (Zea mays), soybean (Glycine max), velvetleaf (Abutilon theophrasti), lambsquarters (Chenopodium album), poinsettia, wild (wild poinsettia, Euphorbia heterophylla), pigweed, palmer (palmer pigweed, Amaranthus palmeri), waterhemp (common waterhemp, Amaranthus rudis), smartweed (ladysthumb smartweed, Polygonum persicaria), surinam grass (Brachiaria decumbens), crabgrass, large (large crabgrass, Digitaria sanguinalis), crabgrass, Brazil (Brazilian crabgrass, Digitaria horizontalis), panicum, fall (fall panicum, Panicum dichotomiflorum), foxtail, giant (giant foxtail, Setaria faberii), foxtail, green (green foxtail, Setaria viridis), goosegrass (Eleusine indica), johnsongrass (Sorghum halepense), ragweed (common ragweed, Ambrosia elation), barnyardgrass (Echinochloa crus-galli), sandbur (southern sandbur, Cenchrus echinatus), arrowleaf sida (Sida rhombifolia), ryegrass, Italian (Italian ryegrass, Lolium multiflorum), dayflower, (VA) (Virginia dayflower, Commelina virginica), field bindweed (Convolvulus arvensis), cocklebur (common cocklebur, Xanthium strumarium), morningglory (Ipomoea coccinea), nightshade (eastern black nightshade, Solanum ptycanthum), kochia (Kochia scoparia), nutsedge, yellow (yellow nutsedge, Cyperus esculentus) and beggarticks (hairy beggarticks, Bidens pilosa) were planted into a silt loam soil and treated preemergence with test chemicals formulated in a non-phytotoxic solvent mixture which included a surfactant. At the same time, plants selected from these crop and weed species were planted in pots containing a growing medium comprising spaghnum peat moss, vermiculite, wetting agent and starter nutrients and treated with postemergence applications of some of the test chemicals formulated in the same manner. Plants ranged in height from 2 to 18 cm for postemergence treatments (1- to 4-leaf stage).
(§2) Treated plants and controls were maintained in a greenhouse for 14 to 21 days, after which time all species were compared to controls and visually evaluated. Plant response ratings, summarized in Table E, are based on a scale of 0 to 100 where 0 is no effect and 100 is complete control. A dash (-) response means no test result.

[2] = test system: waterhemp (common waterhemp, Amaranthus rudis); assay: Test E pre-/postemergence: waterhemp
Excerpt: as §1, §2

[3] = test system: crabgrass, Brazil (Brazilian crabgrass, Digitaria horizontalis); assay: Test E pre-/postemergence: crabgrass, Brazil
Excerpt: as §1, §2

[4] = test system: panicum, fall (fall panicum, Panicum dichotomiflorum); assay: Test E pre-/postemergence: panicum, fall
Excerpt: as §1, §2

[5] = test system: foxtail, giant (giant foxtail, Setaria faberii); assay: Test E pre-/postemergence: foxtail, giant
Excerpt: as §1, §2

[6] = test system: sandbur (southern sandbur, Cenchrus echinatus); assay: Test E pre-/postemergence: sandbur
Excerpt: as §1, §2

[7] = test system: arrowleaf sida (Sida rhombifolia); assay: Test E pre-/postemergence: arrowleaf sida
Excerpt: as §1, §2

[8] = test system: beggarticks (hairy beggarticks, Bidens pilosa); assay: Test E pre-/postemergence: beggarticks
Excerpt: as §1, §2

Compound | Plant response rating: Pigweed, Palmer ([1]; 16 g ai/ha) | Plant response rating: Pigweed, Palmer ([1]; 31 g ai/ha) | Plant response rating: Pigweed, Palmer ([1]; 62 g ai/ha) | Plant response rating: Pigweed, Palmer ([1]; 125 g ai/ha) | Plant response rating: Pigweed, Palmer ([1]; 250 g ai/ha) | Plant response rating: Waterhemp ([2]; 16 g ai/ha) | Plant response rating: Waterhemp ([2]; 31 g ai/ha) | Plant response rating: Waterhemp ([2]; 62 g ai/ha) | Plant response rating: Waterhemp ([2]; 125 g ai/ha) | Plant response rating: Waterhemp ([2]; 250 g ai/ha) | Plant response rating: Crabgrass, Brazil ([3]; 16 g ai/ha) | Plant response rating: Crabgrass, Brazil ([3]; 31 g ai/ha) | Plant response rating: Crabgrass, Brazil ([3]; 62 g ai/ha) | Plant response rating: Crabgrass, Brazil ([3]; 125 g ai/ha) | Plant response rating: Crabgrass, Brazil ([3]; 250 g ai/ha) | Plant response rating: Panicum, Fall ([4]; 16 g ai/ha) | Plant response rating: Panicum, Fall ([4]; 31 g ai/ha) | Plant response rating: Panicum, Fall ([4]; 62 g ai/ha) | Plant response rating: Panicum, Fall ([4]; 125 g ai/ha) | Plant response rating: Panicum, Fall ([4]; 250 g ai/ha) | further results
FC(F)(F)COc1nn(-c2ccc(C(F)(F)F)cc2)nc1Cc1ccnc(C(F)(F)F)c1 [Compound 14, 4-[[5-(2,2,2-trifluoroethoxy)-2-[4-(trifluoromethyl)phenyl]-2H-1,2,3-triazol-4-yl]methyl]-2-(trifluoromethyl)pyridine] | 75 | 100 | 100 | 100 | 100 | 90 | 98 | 100 | 100 | 100 | 60 | 75 | 100 | 100 | 100 | 65 | 80 | 100 | 100 | 100 | Plant response rating: Foxtail, Giant ([5]; 16 g ai/ha): 50; Plant response rating: Foxtail, Giant ([5]; 31 g ai/ha): 75; Plant response rating: Foxtail, Giant ([5]; 62 g ai/ha): 98; Plant response rating: Foxtail, Giant ([5]; 125 g ai/ha): 100; Plant response rating: Foxtail, Giant ([5]; 250 g ai/ha): 100; Plant response rating: Sandbur ([6]; 16 g ai/ha): 5; Plant response rating: Sandbur ([6]; 31 g ai/ha): 5; Plant response rating: Sandbur ([6]; 62 g ai/ha): 15; Plant response rating: Sandbur ([6]; 125 g ai/ha): 50; Plant response rating: Sandbur ([6]; 250 g ai/ha): 50; Plant response rating: Arrowleaf Sida ([7]; 16 g ai/ha): 10; Plant response rating: Arrowleaf Sida ([7]; 31 g ai/ha): 30; Plant response rating: Arrowleaf Sida ([7]; 62 g ai/ha): 30; Plant response rating: Arrowleaf Sida ([7]; 125 g ai/ha): 65; Plant response rating: Arrowleaf Sida ([7]; 250 g ai/ha): 80; Plant response rating: Beggarticks ([8]; 16 g ai/ha): 5; Plant response rating: Beggarticks ([8]; 31 g ai/ha): 50; Plant response rating: Beggarticks ([8]; 62 g ai/ha): 90; Plant response rating: Beggarticks ([8]; 125 g ai/ha): 98; Plant response rating: Beggarticks ([8]; 250 g ai/ha): 100
COc1nn(-c2ccc(C(F)(F)F)cc2)nc1Cc1ccnc(C(F)(F)F)c1 [Compound 15, 4-[[5-methoxy-2-[4-(trifluoromethyl)phenyl]-2H-1,2,3-triazol-4-yl]methyl]-2-(trifluoromethyl)pyridine] | 100 | 100 | 100 | 100 | 100 | 98 | 100 | 100 | 100 | 100 | 60 | 98 | 100 | 100 | 100 | 98 | 98 | 100 | 100 | 100 | Plant response rating: Foxtail, Giant ([5]; 16 g ai/ha): 65; Plant response rating: Foxtail, Giant ([5]; 31 g ai/ha): 98; Plant response rating: Foxtail, Giant ([5]; 62 g ai/ha): 100; Plant response rating: Foxtail, Giant ([5]; 125 g ai/ha): 100; Plant response rating: Foxtail, Giant ([5]; 250 g ai/ha): 100; Plant response rating: Sandbur ([6]; 16 g ai/ha): 5; Plant response rating: Sandbur ([6]; 31 g ai/ha): 25; Plant response rating: Sandbur ([6]; 62 g ai/ha): 50; Plant response rating: Sandbur ([6]; 125 g ai/ha): 90; Plant response rating: Sandbur ([6]; 250 g ai/ha): 100; Plant response rating: Arrowleaf Sida ([7]; 31 g ai/ha): 30; Plant response rating: Arrowleaf Sida ([7]; 62 g ai/ha): 40; Plant response rating: Arrowleaf Sida ([7]; 125 g ai/ha): 50; Plant response rating: Arrowleaf Sida ([7]; 250 g ai/ha): 60; Plant response rating: Beggarticks ([8]; 16 g ai/ha): 5; Plant response rating: Beggarticks ([8]; 31 g ai/ha): 5; Plant response rating: Beggarticks ([8]; 62 g ai/ha): 50; Plant response rating: Beggarticks ([8]; 125 g ai/ha): 80; Plant response rating: Beggarticks ([8]; 250 g ai/ha): 100
